Assay results from patent publication US12516095B2, “Peptide hormone analogues” (IP2IPO INNOVATIONS LIMITED, priority 2019, dated 2026).
Starred links: 1 amine or outer side, 2 acyl side, 3 side chain; linkers in the order of their positions; H or OH if unused. Non-standard residues stand in square brackets, D forms with d. Residues, ends and D or L forms follow the SMILES beside them. Groups on a side chain read outwards from the residue. *: point of attachment. C20 diacid = O=C(O)CCCCCCCCCCCCCCCCCCC(=O)*; C18 diacid = O=C(O)CCCCCCCCCCCCCCCCC(=O)*; γGlu = O=C(O)[C@H](CCC(=O)[*:2])N[*:1]; Aib = CC(C)(N)C(=O)O

Test: PK measurements for half life assessment in pigs
Assay type: in vivo, pig
Conditions: plasma, single subcutaneous injection, time from tmax to half of Cmax, typically mean of four animals; for half-life: male, large white, pig, sc
Procedure: Male large white pigs receive a single subcutaneous injection of the test compound at the start of study (0 hours). Repeated blood samples were taken from the pig over the proceeding 168 hours and plasma separated and stored at −20 to −80° C. Plasma concentration of the test compound was quantified using a radioimmunoassay or mass spectrum analysis. Time taken from tmax to half of Cmax was calculated and represents the half-life (t½) of the compound. Typically, the presented t½ is the mean of four separate animals.

Row | half-life [h] | Half life (male large white pigs) [h] | Molecule
1 | 84 |  | CC[C@H](C)[C@H](NC(=O)[C@H](Cc1ccccc1)NC(=O)[C@H](CCC(=O)O)NC(=O)[C@H](CCCNC(=N)N)NC(=O)[C@H](C)NC(=O)[C@H](CCCNC(=N)N)NC(=O)[C@H](CCCCN)NC(=O)[C@H](C)NC(=O)[C@H](CC(=O)O)NC(=O)[C@H](CC(C)C)NC(=O)[C@H](Cc1ccc(O)cc1)NC(=O)[C@H](CCCCN)NC(=O)[C@H](CO)NC(=O)[C@H](Cc1ccc(O)cc1)NC(=O)[C@H](CC(=O)O)NC(=O)[C@H](CO)NC(=O)[C@@H](NC(=O)[C@H](Cc1ccccc1)NC(=O)[C@@H](NC(=O)CNC(=O)[C@H](Cc1c[nH]cn1)NC(=O)C(C)(C)NC(=O)[C@@H](N)Cc1c[nH]cn1)[C@@H](C)O)[C@@H](C)O)C(=O)N[C@@H](CCC(=O)O)C(=O)N[C@@H](Cc1c[nH]c2ccccc12)C(=O)N[C@@H](CC(C)C)C(=O)N[C@@H](CC(C)C)C(=O)N[C@@H](CCC(N)=O)C(=O)N[C@@H](CO)C(=O)N[C@@H](Cc1c[nH]cn1)C(=O)N[C@@H](CCC(N)=O)C(=O)N[C@@H](CCC(N)=O)C(=O)N[C@@H](Cc1c[nH]cn1)C(=O)N1CCC[C@H]1C(=O)N[C@@H](CO)C(=O)N1CCC[C@H]1C(=O)N1CCC[C@H]1C(=O)N1CCC[C@H]1C(=O)NCC(=O)N[C@@H](CCCCNC(=O)[C@H](CC(N)=O)NC(=O)CC[C@H](NC(=O)CCCCCCCCCCCCCCCCCCC(=O)O)C(=O)O)C(=O)O [Example 705] (H-H[Aib]HGTFTSDYSKYLDAKRAREFIEWLLQSHQQHPSPPPGK([Asn-γGlu-C20 diacid])-OH)
2 | 84 |  | CC[C@H](C)[C@H](NC(=O)[C@H](Cc1ccccc1)NC(=O)[C@H](CCC(=O)O)NC(=O)[C@H](CCC(N)=O)NC(=O)[C@H](C)NC(=O)[C@H](CCCNC(=N)N)NC(=O)[C@H](CCCCN)NC(=O)[C@H](C)NC(=O)[C@H](CC(=O)O)NC(=O)[C@H](CC(C)C)NC(=O)[C@H](Cc1ccc(O)cc1)NC(=O)[C@H](CCCCN)NC(=O)[C@H](CO)NC(=O)[C@H](Cc1ccc(O)cc1)NC(=O)[C@H](CC(=O)O)NC(=O)[C@H](CO)NC(=O)[C@@H](NC(=O)[C@H](Cc1ccccc1)NC(=O)[C@@H](NC(=O)CNC(=O)[C@H](Cc1c[nH]cn1)NC(=O)C(C)(C)NC(=O)[C@@H](N)Cc1c[nH]cn1)[C@@H](C)O)[C@@H](C)O)C(=O)N[C@@H](CCC(=O)O)C(=O)N[C@@H](Cc1c[nH]c2ccccc12)C(=O)N[C@@H](CC(C)C)C(=O)N[C@@H](CC(C)C)C(=O)N[C@@H](CCC(N)=O)C(=O)N[C@@H](CO)C(=O)N[C@@H](Cc1c[nH]cn1)C(=O)N[C@@H](Cc1c[nH]cn1)C(=O)N[C@@H](CCC(N)=O)C(=O)N[C@@H](CCC(N)=O)C(=O)N[C@@H](Cc1c[nH]cn1)C(=O)N[C@@H](CCC(=O)O)C(=O)N[C@@H](CO)C(=O)N1CCC[C@H]1C(=O)N1CCC[C@H]1C(=O)N1CCC[C@H]1C(=O)N[C@@H](CCCCNC(=O)[C@H](Cc1c[nH]cn1)NC(=O)[C@H](CC(N)=O)NC(=O)CC[C@H](NC(=O)CCCCCCCCCCCCCCCCC(=O)O)C(=O)O)C(=O)O [Example 649] (H-H[Aib]HGTFTSDYSKYLDAKRAQEFIEWLLQSHHQQHESPPPK([His-Asn-γGlu-C18 diacid])-OH)
3 | 112 |  | CC[C@H](C)[C@H](NC(=O)[C@H](Cc1ccccc1)NC(=O)[C@H](CCC(=O)O)NC(=O)[C@H](Cc1c[nH]cn1)NC(=O)[C@H](C)NC(=O)[C@H](CCCNC(=N)N)NC(=O)[C@H](CCCCN)NC(=O)[C@H](C)NC(=O)[C@H](CC(=O)O)NC(=O)[C@H](CC(C)C)NC(=O)[C@H](Cc1ccc(O)cc1)NC(=O)[C@H](CCCCN)NC(=O)[C@H](CO)NC(=O)[C@H](Cc1ccc(O)cc1)NC(=O)[C@H](CC(=O)O)NC(=O)[C@H](CO)NC(=O)[C@@H](NC(=O)[C@H](Cc1ccccc1)NC(=O)[C@@H](NC(=O)CNC(=O)[C@H](Cc1c[nH]cn1)NC(=O)C(C)(C)NC(=O)[C@@H](N)Cc1c[nH]cn1)[C@@H](C)O)[C@@H](C)O)C(=O)N[C@@H](CCC(=O)O)C(=O)N[C@@H](Cc1c[nH]c2ccccc12)C(=O)N[C@@H](CC(C)C)C(=O)N[C@@H](CC(C)C)C(=O)N[C@@H](CCC(N)=O)C(=O)N[C@@H](CO)C(=O)N[C@@H](Cc1c[nH]cn1)C(=O)N[C@@H](CCC(N)=O)C(=O)N[C@@H](CCC(N)=O)C(=O)N[C@@H](Cc1c[nH]cn1)C(=O)N[C@@H](CO)C(=O)N1CCC[C@H]1C(=O)N1CCC[C@H]1C(=O)N1CCC[C@H]1C(=O)N[C@@H](CCCCNC(=O)[C@H](CO)NC(=O)CNC(=O)CC[C@H](NC(=O)CCCCCCCCCCCCCCCCC(=O)O)C(=O)O)C(=O)O [Example 507] (H-H[Aib]HGTFTSDYSKYLDAKRAHEFIEWLLQSHQQHSPPPK([Ser-Gly-γGlu-C18 diacid])-OH)
4 |  | 66 | H-H[Aib]HGTFTSDYSKYLDAKRAQEFIEWLLQSHHQQHESPPPGK([γGlu-C20 diacid])-OH [Example 701]
5 | 116 |  | CC[C@H](C)[C@H](NC(=O)[C@H](Cc1ccccc1)NC(=O)[C@H](CCC(=O)O)NC(=O)[C@H](Cc1c[nH]cn1)NC(=O)[C@H](C)NC(=O)[C@H](CCCNC(=N)N)NC(=O)[C@H](CCCCN)NC(=O)[C@H](C)NC(=O)[C@H](CC(=O)O)NC(=O)[C@H](CC(C)C)NC(=O)[C@H](Cc1ccc(O)cc1)NC(=O)[C@H](CCCCN)NC(=O)[C@H](CO)NC(=O)[C@H](Cc1ccc(O)cc1)NC(=O)[C@H](CC(=O)O)NC(=O)[C@H](CO)NC(=O)[C@@H](NC(=O)[C@H](Cc1ccccc1)NC(=O)[C@@H](NC(=O)CNC(=O)[C@H](Cc1c[nH]cn1)NC(=O)C(C)(C)NC(=O)[C@@H](N)Cc1c[nH]cn1)[C@@H](C)O)[C@@H](C)O)C(=O)N[C@@H](CCC(=O)O)C(=O)N[C@@H](Cc1c[nH]c2ccccc12)C(=O)N[C@@H](CC(C)C)C(=O)N[C@@H](CC(C)C)C(=O)N[C@@H](CCC(N)=O)C(=O)N[C@@H](CO)C(=O)N[C@@H](Cc1c[nH]cn1)C(=O)N[C@@H](CCC(N)=O)C(=O)N[C@@H](CCC(N)=O)C(=O)N[C@@H](Cc1c[nH]cn1)C(=O)N[C@@H](CCC(=O)O)C(=O)N[C@@H](CO)C(=O)N1CCC[C@H]1C(=O)N1CCC[C@H]1C(=O)N1CCC[C@H]1C(=O)NCC(=O)N[C@@H](CCCCNC(=O)[C@H](CC(N)=O)NC(=O)CC[C@H](NC(=O)CCCCCCCCCCCCCCCCCCC(=O)O)C(=O)O)C(=O)O [Example 652] (H-H[Aib]HGTFTSDYSKYLDAKRAHEFIEWLLQSHQQHESPPPGK([Asn-γGlu-C20 diacid])-OH)
6 | 110 |  | CC[C@H](C)[C@H](NC(=O)[C@H](Cc1ccccc1)NC(=O)[C@H](CCC(=O)O)NC(=O)[C@H](CCC(N)=O)NC(=O)[C@H](C)NC(=O)[C@H](CCCNC(=N)N)NC(=O)[C@H](CCCCN)NC(=O)[C@H](C)NC(=O)[C@H](CC(=O)O)NC(=O)[C@H](CC(C)C)NC(=O)[C@H](Cc1ccc(O)cc1)NC(=O)[C@H](CCCCN)NC(=O)[C@H](CO)NC(=O)[C@H](Cc1ccc(O)cc1)NC(=O)[C@H](CC(=O)O)NC(=O)[C@H](CO)NC(=O)[C@@H](NC(=O)[C@H](Cc1ccccc1)NC(=O)[C@@H](NC(=O)CNC(=O)[C@H](Cc1c[nH]cn1)NC(=O)C(C)(C)NC(=O)[C@@H](N)Cc1c[nH]cn1)[C@@H](C)O)[C@@H](C)O)C(=O)N[C@@H](CCC(=O)O)C(=O)N[C@@H](Cc1c[nH]c2ccccc12)C(=O)N[C@@H](CC(C)C)C(=O)N[C@@H](CC(C)C)C(=O)N[C@@H](CCC(N)=O)C(=O)N[C@@H](CO)C(=O)N[C@@H](Cc1c[nH]cn1)C(=O)N[C@@H](CCC(N)=O)C(=O)N[C@@H](CCC(N)=O)C(=O)N[C@@H](Cc1c[nH]cn1)C(=O)N1CCC[C@H]1C(=O)N[C@@H](CO)C(=O)N1CCC[C@H]1C(=O)N1CCC[C@H]1C(=O)N1CCC[C@H]1C(=O)NCC(=O)N[C@@H](CCCCNC(=O)[C@H](CC(N)=O)NC(=O)CC[C@H](NC(=O)CCCCCCCCCCCCCCCCCCC(=O)O)C(=O)O)C(=O)O [Example 706] (H-H[Aib]HGTFTSDYSKYLDAKRAQEFIEWLLQSHQQHPSPPPGK([Asn-γGlu-C20 diacid])-OH)
7 | 65 |  | CC[C@H](C)[C@H](NC(=O)[C@H](Cc1ccccc1)NC(=O)[C@H](CCC(=O)O)NC(=O)[C@H](Cc1c[nH]cn1)NC(=O)[C@H](C)NC(=O)[C@H](CCCNC(=N)N)NC(=O)[C@H](CCCCN)NC(=O)[C@H](C)NC(=O)[C@H](CC(=O)O)NC(=O)[C@H](CC(C)C)NC(=O)[C@H](Cc1ccc(O)cc1)NC(=O)[C@H](CCCCN)NC(=O)[C@H](CO)NC(=O)[C@H](Cc1ccc(O)cc1)NC(=O)[C@H](CC(=O)O)NC(=O)[C@H](CO)NC(=O)[C@@H](NC(=O)[C@H](Cc1ccccc1)NC(=O)[C@@H](NC(=O)CNC(=O)[C@H](Cc1c[nH]cn1)NC(=O)C(C)(C)NC(=O)[C@@H](N)Cc1c[nH]cn1)[C@@H](C)O)[C@@H](C)O)C(=O)N[C@@H](CCC(=O)O)C(=O)N[C@@H](Cc1c[nH]c2ccccc12)C(=O)N[C@@H](CC(C)C)C(=O)N[C@@H](CC(C)C)C(=O)N[C@@H](CCC(N)=O)C(=O)N[C@@H](CO)C(=O)N[C@@H](Cc1c[nH]cn1)C(=O)N[C@@H](CCC(N)=O)C(=O)N[C@@H](CCC(N)=O)C(=O)N[C@@H](Cc1c[nH]cn1)C(=O)N[C@@H](CCC(=O)O)C(=O)N[C@@H](CO)C(=O)N1CCC[C@H]1C(=O)N1CCC[C@H]1C(=O)N1CCC[C@H]1C(=O)N[C@@H](CCCCNC(=O)CC[C@H](NC(=O)CCCCCCCCCCCCCCCCCCC(=O)O)C(=O)O)C(=O)O [Example 588] (H-H[Aib]HGTFTSDYSKYLDAKRAHEFIEWLLQSHQQHESPPPK([γGlu-C20 diacid])-OH)
8 | 106 |  | H-H[Aib]HGTFTSDYSKYLDAKRAQEFIEWLLQSHHQQHESPPPGK([Asn-γGlu-C20 diacid])-OH [Example 647]
